In ChEMBL document CHEMBL1135906 (J Med Chem, 2002):

What was measured:
[1] = target: Prostaglandin G/H synthase 1 (Homo sapiens, UniProt P23219); test: Inhibition of human purified Prostaglandin G/H synthase 1
[2] = target: T1, Prostaglandin G/H synthase 2 (Homo sapiens, UniProt P35354); test: Inhibition of human purified Prostaglandin G/H synthase 2
T1 sequence (P35354 whole entry): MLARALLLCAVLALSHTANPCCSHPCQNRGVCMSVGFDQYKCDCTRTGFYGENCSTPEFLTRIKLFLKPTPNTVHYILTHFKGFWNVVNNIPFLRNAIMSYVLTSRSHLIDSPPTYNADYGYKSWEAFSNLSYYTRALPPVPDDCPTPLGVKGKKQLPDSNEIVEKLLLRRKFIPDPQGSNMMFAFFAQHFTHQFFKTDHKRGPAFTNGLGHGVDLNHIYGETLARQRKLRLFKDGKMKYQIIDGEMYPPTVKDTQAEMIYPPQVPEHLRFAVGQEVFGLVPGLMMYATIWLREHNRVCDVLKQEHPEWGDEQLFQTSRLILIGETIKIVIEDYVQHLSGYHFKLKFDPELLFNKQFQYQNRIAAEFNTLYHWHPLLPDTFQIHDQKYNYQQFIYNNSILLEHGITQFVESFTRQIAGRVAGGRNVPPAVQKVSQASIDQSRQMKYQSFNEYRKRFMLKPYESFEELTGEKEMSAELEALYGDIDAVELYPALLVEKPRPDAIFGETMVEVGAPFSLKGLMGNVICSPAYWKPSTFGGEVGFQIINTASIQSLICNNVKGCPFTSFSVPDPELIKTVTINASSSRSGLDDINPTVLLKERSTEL

[3] = tested on: Rattus norvegicus; test: The compound was tested in vivo for gastric ulcerogenic activity in rat after peroral administration; assay type: functional, Stomach
[4] = tested on: Rattus norvegicus; test: The compound was tested in vivo for activity against carrageenan induced paw edema in rat after peroral administration; assay type: functional; settings: po
[5] = species: Rattus norvegicus; test: animal or person; settings: po
Description: The compound was tested in vivo for activity against adjuvant-induced arthritis in rat after peroral administration after peroral administration

[6] = tested on: Rattus norvegicus; test: The compound was tested in vivo for activity against adjuvant-induced arthritis in rat after peroral administration; assay type: functional; settings: po
[7] = tested on: Rattus norvegicus; test: The compound was tested in vivo for activity against yeast -induced hyperalgesia in rat after peroral administration; assay type: functional; settings: po
[8] = tested on: Rattus norvegicus; test: The compound was tested in vivo for activity against yeast -induced hyperthermia in rat after peroral administration; assay type: functional; settings: po
[9] = tested on: Rattus norvegicus; test: Under dose in vivo for activity against carrageenan induced paw edema in rat after administering perorally; assay type: functional
[10] = tested on: Rattus norvegicus; test: The effective dose in vivo for activity against carrageenan induced paw edema in rat after administering perorally; assay type: functional

Prostaglandin G/H synthase 1, sequence (P23219 whole entry): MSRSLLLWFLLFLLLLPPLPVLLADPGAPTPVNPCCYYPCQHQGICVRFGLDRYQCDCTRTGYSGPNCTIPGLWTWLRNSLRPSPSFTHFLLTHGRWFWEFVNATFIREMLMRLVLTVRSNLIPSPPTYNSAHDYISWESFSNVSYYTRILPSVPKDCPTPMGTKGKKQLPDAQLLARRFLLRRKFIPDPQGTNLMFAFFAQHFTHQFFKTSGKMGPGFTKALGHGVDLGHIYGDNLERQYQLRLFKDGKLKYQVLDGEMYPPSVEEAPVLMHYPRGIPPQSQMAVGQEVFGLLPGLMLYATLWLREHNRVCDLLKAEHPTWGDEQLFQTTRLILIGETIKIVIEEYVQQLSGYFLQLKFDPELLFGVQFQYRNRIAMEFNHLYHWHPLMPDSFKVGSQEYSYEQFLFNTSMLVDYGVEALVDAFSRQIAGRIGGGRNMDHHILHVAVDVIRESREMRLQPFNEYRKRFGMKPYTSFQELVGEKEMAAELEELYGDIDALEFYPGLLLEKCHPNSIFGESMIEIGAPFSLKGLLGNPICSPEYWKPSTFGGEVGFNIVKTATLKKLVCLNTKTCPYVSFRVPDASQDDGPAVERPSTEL

Row | SMILES | IC50 [1] [µM] | IC50 [2] [µM] | also measured
1 | COc1cc(-c2oc(C)nc2C2CCCCC2)ccc1S(N)(=O)=O | > 100 | > 100 | 
2 | Cc1nc(C2CCCCC2)c(-c2ccc(S(N)(=O)=O)c(O)c2)o1 | > 100 | 19.7 | 
3 | Cc1ccc(-c2cc(C(F)(F)F)nn2-c2ccc(S(N)(=O)=O)cc2)cc1 [CELECOXIB] |  |  | UD50 [3]: >200 mg/kg; ED50 [4]: 2.8 mg/kg; ED50 [5]: 0.37 mg/kg
4 | Cc1nc(-c2ccc(F)cc2)c(-c2ccc(S(N)(=O)=O)c(F)c2)o1 | 40 | 0.04 | 
5 | Cc1nc(C2CCCCC2)c(-c2ccc(S(N)(=O)=O)c(N)c2)o1 | > 100 | 0.93 | 
6 | COc1ccc2c(c1)c(CC(=O)O)c(C)n2C(=O)c1ccc(Cl)cc1 [INDOMETHACIN] |  |  | UD50 [3]: 3.4 mg/kg; ED50 [6]: 0.13 mg/kg; ED50 [4]: 1.6 mg/kg; ED50 [7]: 3.1 mg/kg; ED50 [8]: 1.4 mg/kg
7 | Cc1nc(C2CCCCC2)c(-c2ccc(S(N)(=O)=O)c(F)c2)o1 [TILMACOXIB] | > 100 | 0.085 | UD50 [9]: >300 mg/kg; ED50 [10]: 4.4 mg kg-1 [middle of 4 runs]

Second part, led by results:

Row | IC50 [1] [µM] | IC50 [2] [µM] | SMILES | also measured
8 | 1.8 | 0.012 | Cc1nc(-c2ccc(C)s2)c(-c2ccc(S(N)(=O)=O)cc2)o1 | 
9 | 47 | 0.12 | CCc1nc(C2CCCCC2)c(-c2ccc(S(N)(=O)=O)c(F)c2)o1 | 
10 | 25 | 0.026 | Cc1nc(-c2ccc(C)s2)c(-c2ccc(S(N)(=O)=O)c(F)c2)o1 | 
11 | 29.7 | 0.6 | CC(C)c1nc(C2CCCCC2)c(-c2ccc(S(N)(=O)=O)c(F)c2)o1 | 
12 | > 100 |  | Cc1nc(C2CCCCC2)c(-c2ccc(S(N)(=O)=O)c(C)c2)o1 | 
13 | > 100 |  | Cc1nc(C2CCCCC2)c(-c2ccc(S(N)(=O)=O)c(Cl)c2)o1 | 
